From US6495576B2, “Aminal diones as potassium channel openers” (Abbott Laboratories, priority 2001, dated 2002)
Like-named read-outs stand apart in the source and are kept apart here.

Tested on: Landrace pig bladder strips
Experiment: Functional potassium channel opening activity in isolated, field-stimulated bladder strips
Details: for Index: ED50 for P1075 divided by ED50 for test agonist in a given tissue, averaged; for EC50: amount causing 50% of the agent's maximal response, field stimulation 0.05 Hz, 0.5 ms, 20 volts, read-out: ED50 (the source's name); for Efficacy (%P1075) / Emax: maximal efficacy on stimulated twitch, relative to P1075
Method: Compound were evaluated for functional potassium channel opening activity using tissue strips obtained from Landrace pig bladders.
Landrace pig bladders were obtained from female Landrace pigs of 9-30 kg. Landrace pig were euthanized with an intraperitoneal injection of pentobarbital solution, Somlethal ®, J. A. Webster Inc. Sterling Mass. The entire bladder was removed and immediately placed into Krebs Ringer bicarbonate solution (composition, mM: NaCl, 120; NaHCO3, 20; dextrose, 11; KCl, 4.7; CaCl2, 2.5; MgSO4, 1.5; KH2PO4, 1.2; K2EDTA, 0.01, equilibrated with 5% CO2/95% O2 pH 7.4 at 37° C.). Propranolol (0.004 mM) was included in all of the assays to block β-adrenoceptors. The trigonal and dome portions were discarded. Strips 3-5 mm wide and 20 mm long were prepared from the remaining tissue cut in a circular fashion. The mucosal layer was removed. One end was fixed to a stationary glass rod and the other to a Grass FT03 transducer at a basal preload of 1.0 gram. Two parallel platinum electrodes were included in the stationary glass rod to provide field stimulation of 0.05 Hz, 0.5 milli-seconds at 20 volts. This low frequency stimulation produced a stable twitch response of 100-500 centigrams. Tissues were allowed to equilibrate for at least 60 minutes and primed with 80 mM KCl. A control concentration response curve (cumulative) was generated for each tissue using the potassium channel opener P1075 as the control agonist. […] After a 60 minute rinsing period, a concentration response curve (cumulative) was generated for the test agonist in the same fashion as that used for control agonist P1075. The maximal efficacy of each compound (expressed as % relative to P1075) is reported. The amount of agent necessary to cause 50% of the agent's maximal response (ED50) was calculated using “ALLFIT” (DeLean et al., Am. J. Physiol., 235, E97 (1980)), hereby incorporated by reference. Agonist potencies were also expressed as an index relative to P1075. The index was calculated by dividing the ED50 for P1075 by the ED50 for the test agonist in a given tissue. Each tissue was used for only one test agonist, and the indices obtained from each tissue were averaged to provide an average index of potency.

SMILES | EC50 [µM] | EC50 (Sus scrofa) [µM] | Index | Efficacy (%P1075) | Emax (Sus scrofa) [%] | effect on stimulated twitch (control agonist, dose dependent, 10^−9 to 10^−5 M)
O=C(NC(Nc1c(Nc2cccnc2)c(=O)c1=O)C(F)(F)C(F)(F)F)c1cccc(Cl)c1 (centres unmarked) [Example 26, 3-Chloro-N-(1-{[3,4-dioxo-2-(3-pyridinylamino)-1-cyclobuten-1-yl]amino}−2,2,3,3,3-pentafluoropropyl)benzamide] | – | – | 0.64 | – | – | –
CC(C)(C)C(NC(=O)c1ccc(Cl)cc1)Nc1c(Nc2cccnc2Cl)c(=O)c1=O (centres unmarked) [Example 29, 4-Chloro-N-[1-({2-[(2-chloro-3-pyridinyl)amino]-3,4-dioxo-1-cyclobuten-1-yl}amino)-2,2-dimethylpropyl]benzamide] | – | – | 0.028 | – | – | –
CC(C)(Cc1ccccc1)C(NC(=O)c1ccc(Cl)cc1)Nc1c(Nc2cccnc2Cl)c(=O)c1=O (centres unmarked) [Example 31, 4-Chloro-N-[1-({2-[(2-chloro-3-pyridinyl)amino]-3,4-dioxo-1-cyclobuten-1-yl}amino)-2,2-dimethyl-32-phenylpropyl]benzamide] | 2.9 | – | 0.039 | 76 | – | –
Cc1cccc(C(=O)NC(Nc2c(Nc3cccnc3Cl)c(=O)c2=O)C(C)(C)C)c1 (centres unmarked) [Example 32, N-[1-({2-[(2-Chloro-3-pyridinyl)amino]-3,4-dioxo-1-cyclobuten-1-yl}amino)-2,2-dimethylpropyl]-3-methylbenzamide] | – | – | 0.076 | – | – | –
CC(C)(C)C(NC(=O)CCc1ccccc1)Nc1c(Nc2cccnc2)c(=O)c1=O (centres unmarked) [Example 36, N-(1-{[3,4-Dioxo-2-(3-pyridinylamino)-1-cyclobuten-1-yl]amino}-2,2-dimethylpropyl)-3-phenylpropionamide] | – | – | 0.063 | – | – | –
CC(Cl)(Cl)C(NC(=O)c1cc(F)cc(F)c1)Nc1c(Nc2cccnc2)c(=O)c1=O (centres unmarked) [Example 51, N-(2,2-Dichloro-1-{[3,4dioxo-2-(3-pyridinylamino)-1-cyclobuten-1-yl]amino}propyl)-3,5-difluorobenzamide] | – | 1.4 | 0.080 | – | 96 | –
CC(C)(Cc1ccccc1)C(NC(=O)c1cc(F)cc(F)c1)Nc1c(Nc2cccnc2)c(=O)c1=O (centres unmarked) [Example 55, N-(1-{[3,4-Dioxo-2-(3-pyridinylamino)-1-cyclobuten-1-yl]amino}-2,2-dimethyl-3-phenylpropyl)-3,5-difluorobenzamide] | – | 2.3 | 0.053 | – | 75 | –
CC(C)(Cc1ccccc1)C(NC(=O)c1cccc(Cl)c1)Nc1c(Nc2cccnc2)c(=O)c1=O (centres unmarked) [Example 59, 3-Chloro-N-(1-{[3,4-dioxo-2-(3-pyridinylamino)-1-cyclobuten-1-yl]amino}-2,2-dimethyl-3-phenylpropyl)benzamide] | – | 1.7 | 0.062 | – | 57 | –
Cc1cccc(C(=O)NC(Nc2c(Nc3cccnc3Cl)c(=O)c2=O)C(C)(C)Cc2ccccc2)c1 (centres unmarked) [Example 61, N-[1-({2[(2-Chloropyiridin-3-yl)amino]-3,4-dioxo-1-cyclobuten-1-yl}amino)-2,2-dimethyl-3-phenylpropyl]-3-methylbenzamide] | 0.47 | – | 0.50 | 64 | – | –
CC(C)(C)CC(NC(=O)c1cccc(Cl)c1)Nc1c(Nc2cccnc2)c(=O)c1=O (centres unmarked) [Example 64, 3-Chloro-N-(1-{[3,4-dioxo-2-(3 pyridinylamino)-1-cyclobuten-1-yl]amino}-3,3-dimethylbutyl)benzamide] | – | 4.2 | 0.025 | – | 76 | –
CC(C)(C)C(NC(=O)c1cccc(Br)c1)Nc1c(Nc2cccnc2)c(=O)c1=O (centres unmarked) [Example 66, 3-Bromo-N-(1-{[3,4-dioxo-2-(3-pyridinylamino)-1-cyclobuten-1-yl]amino}-2,2-dimethylpropyl)benzamide] | – | 4.2 | 0.040 | – | 74 | –
CCC(C)(C)N=C(NC#N)Nc1cccnc1 [Example P1075, reference compound] | – | – | – | – | – | completely eliminated the stimulated twitch

The next lines start with results.

EC50 [µM] | EC50 (Sus scrofa) [µM] | SMILES | Index | Efficacy (%P1075) | Emax (Sus scrofa) [%] | effect on stimulated twitch (control agonist, dose dependent, 10^−9 to 10^−5 M)
– | 2.5 | CC(C)(C)C(NC(=O)c1cccc(Br)c1)Nc1c(Nc2cccnc2Cl)c(=O)c1=O (centres unmarked) [Example 67, 3-Bromo-N-[1-({2-[(2-chloropyridin-3-yl)amino]-3,4-dioxo-1-cyclobuten-1-yl}amino)-2,2-dimethylpropyl]benzamide] | 0.029 | – | 72 | –
0.84 | – | CC(C)(C)C(NC(=O)c1cccc(F)c1)Nc1c(Nc2cccnc2Cl)c(=O)c1=O (centres unmarked) [Example 78] | 0.18 | 98 | – | –
– | 4.6 | CC(C)(C)C(NC(=O)c1cc(Cl)cc(Cl)c1)Nc1c(Nc2cccnc2Cl)c(=O)c1=O (centres unmarked) [Example 79, 3,5-Dichloro-N-[1-({2-[(2-chloropyridin-3-yl)amino]-3,4-dioxocyclobut-1-en-1-yl}amino)-2,2-dimethylpropyl]benzamide] | 0.024 | – | 60 | –
0.64 | – | CC(C)(Cc1ccccc1)C(NC(=O)c1ccccc1)Nc1c(Nc2cccnc2)c(=O)c1=O (centres unmarked) [Example 86] | 0.24 | 85 | – | –
1.9 | – | CC(C)(C)C(NC(=O)CCc1ccccc1)Nc1c(Nc2cccnc2Cl)c(=O)c1=O (centres unmarked) [Example 87, N-[1-({2-[(2-chloropyridin-3-yl)amino]-3,4-dioxo-1-cyclobuten-1-yl}amino)-2,2-dimethylpropy1]-3-phenylpropanamide] | 0.039 | 96 | – | –
– | 4.2 | CC(C)(C)[C@H](NC(=O)c1cc(Cl)cc(Cl)c1)Nc1c(Nc2cccnc2Cl)c(=O)c1=O [Example 108, (+) 3,5-Dichloro-N-[(1S)-1-({2-[(2-chloropyridin-3-yl)amino]-3,4-dioxocyclobut-1-en-1-yl}amino)-2,2-dimethylpropyl]benzamide] | 0.033 | – | 89 | –
